Key:
[1] = test system: Mucin 5AC; assay: Western blot: LPS-induced expression of Mucin 5AC in NCI-H929 cells; format: cell-based, human; conditions: 1 μg/mL LPS, 24 hours, vs control group
Text: As indicated above, the hypersecretion of mucus in airway can be observed in the patients suffering from pulmonary injury-related diseases, such as chronic obstructive pulmonary disease and emphysema, and the mucus hypersecretion is associated with the overexpression of mucins in pulmonary tissue. Symptoms like the increased sputum production will occur in the patients suffering from the mucin hypersecretion in airway, and the increased sputum will accumulate in the airway and lung, thereby making the airway narrow and increasing respiratory resistance. To investigate the effects of active ingredients of FU-LING extract in regulating, preventing, and/or treating the pulmonary injury-related diseases, such as chronic obstructive pulmonary disease and emphysema, a Western blot was conducted to measure the inhibitory rate of active ingredients of FU-LING extract (tumulosic acid and poricoic acid A) on the LPS-induced expression of Mucin 5AC in human lung epithelial NCI-H929 cells.
Human lung epithelial NCI-H929 cells were divided into ten groups and separately cultivated with the following media for 24 hours:
(1) Control group: an epithelial cell growth medium containing […];
(2) Positive control group: an epithelial cell growth medium containing 1 μg/mL LPS and 10 μM Dex;
(3) TA group (including four sub-groups): an epithelial cell growth medium containing […] the tumulosic acid (TA) provided by [preparation example C-1], wherein the tumulosic acid (TA) is present in the four sub-groups at a concentration of 1.56, 3.13, 6.25 and 12.5 μg/mL respectively; and
(4) PAA group (including four sub-groups): an epithelial cell growth medium containing 1 μg/mL LPS the poricoic acid A (PAA) provided by [preparation example C-1], wherein the poricoic acid A (PAA) is present in the four sub-groups at a concentration of 6.25, 12.5, 25 and 50 μg/mL respectively.
Thereafter, the proteins in the cells of each group were extracted and then subjected to a Western blot to measure the expression level of Mucin 5AC. The relative expression level of Mucin 5AC of each group was calculated by using the results of the control group as a basis (i.e., the expression level of control group was served as 1-fold).

[2] = test system: MMP-12; assay: Western blot: MMP-12 expression in LPS-treated NR8383 cells; format: cell-based, rat; conditions: 0.01 μg/mL LPS; 6.25 to 50 μg/mL; 24 hours
Description: Rat alveolar macrophage NR8383 cells were divided into six groups and separately cultivated with the following media for 24 hours: • (1) Control group: a macrophage growth medium containing 0.01 μg/mL LPS; • (2) Positive control group: a macrophage growth medium containing 0.01 μg/mL LPS and 1 μM Dex; and • (3) Extract A group (including four sub-groups): a macrophage growth medium containing 0.01 μg/mL LPS and the extract A provided by [preparation example A-2-2], wherein the extract A is present in the four sub-groups at a concentration of 6.25, 12.5, 25 and 50 μg/mL respectively.
Thereafter, the proteins in the cells of each group were extracted and then subjected to a Western blot to measure the expression level of pro-form MMP-9 (i.e., the zymogen form of MMP-9), active-form MMP-9 and MMP-12. The relative expression level of pro-form MMP-9, active-form MMP-9 and MMP-12 of each group was calculated by using the results of the control group as a basis (i.e., the expression level of control group was served as 1-fold).
Rat alveolar macrophage NR8383 cells were divided into ten groups and separately cultivated with the following media for 24 hours:
(1) Control group: a macrophage growth medium containing 0.01 μg/mL LPS;
(2) Positive control group: a macrophage growth medium containing 0.01 μg/mL LPS and 1 μM Dex; […]

## C=C(CC[C@@H](C(=O)O)[C@H]1[C@H](O)C[C@@]2(C)C3=CC[C@@H](C(=C)C)[C@](C)(CCC(=O)O)C3=CC[C@]12C)C(C)C [PAA, poricoic acid A]
[1]; 6.25 μg/mL (low-dose)
  Inhibitory rate on LPS-induced expression of Mucin 5AC: up to 63%
[1]; 50 μg/mL (high-dose)
  Inhibitory rate on LPS-induced expression of Mucin 5AC: ≤ 87%
[2]
  Expression level of MMP-12 (in words): effective in inhibiting

From patent publication US10973863B2, “Method for regulating, preventing and/or treating pulmonary injury” (SINPHAR PHARMACEUTICAL CO., LTD., priority 2017, dated 2021)
